# What was measured:
# [1] = test system: histone H3 acetylation (lysine 9+14) in HeLa cervical carcinoma cells; test: Cellular histone H3 acetylation assay; assay type: cell-based; details: Homo sapiens, 24 h incubation with compound, read-out: EC50 (histone H3 acetylating cellular potency)
# Text: To assess the cellular efficacy of an histone deactylase inhibitor in vitro, an assay is set up in black clear-bottom 96-well plates and optimized for use on the Cellomics “ArrayScan II” platform for a quantitative calculation of histone acetylation. The protocol uses a polyclonal rabbit antibody, specifically binding to acetylated lysine 9+14 of human histone H3 on fixed cells with an Alexa Fluor 488 labeled goat ant rabbit-IgG used for counterstaining (modified from Braunger et al. MCR annual conference 2003, Abstract 4556).
# 5×10^3 HeLa cervical carcinoma cells/well (ATCC CCL-2) in 200 μl Dulbecco's modified Eagle's medium (DMEM) containing 10% fetal calf serum are seeded at day 1 in Packard view plates and incubated for 24 h under standard cell culture conditions. On day 2, 2 μl test compound (100× final concentration) is added and incubation continued for further 24 h. On day 3, the culture medium is discarded and attached cells fixed for 15 min at room temperature by addition of 100 μl fixation buffer (3.7% v:v formaldehyde in phosphate buffered saline/PBS). After discarding the fixation buffer and one wash with PBS, cells are permeabilized at room temperature by addition of 100 μl/well permeabilization buffer (30.8 mM NaCl, 0.54 mM Na2HPO4, 0.31 mM KH2PO4, 5% v:v Triton X-100) for 15 min at room temperature. After discarding the permeabilization buffer and washing twice with 100 μl/well blocking solution (PBS with 0.05% v:v Tween 20 and 5% w:v milk powder) at room temperature, the 1st antibody (anti-K9+14 histone H3 antibody, Calbiochem No. 382158) in blocking solution (50 μl/well) is added. After incubation for 1 h at 37° C., the wells are washed twice at room temperature with 100 μl/well blocking solution before addition of the 2nd antibody (goat-anti-rabbit Alexa Fluor 488; MoBiTec No. A-11008) in blocking solution (50 μl/well). After further incubation for 1 h at 37° C., wells are washed twice with 100 μl/well blocking solution room temperature. Finally, 100 d/well PBS are added and image analysis performed on the Cellomics “ArrayScan II” platform. For calculation of EC50 values, the nuclear fluorescence in cells treated with and without a reference HDAC inhibitor (eg NVP-LBH-589) are taken as a positive and negative control. For EC50 determination, the percentage of positive cells is determined and EC50 calculation done from concentration-effect curves by means of non-linear regression.
# [2] = test system: HeLa cervical carcinoma cell line; test: Cellular cytotoxicity assay (Alamar Blue / Resazurin); assay type: cell-based; details: Homo sapiens; HeLa cells, 48 hours incubation; read-out: IC50 (anti-proliferative/cytotoxic potency)
# Method: The anti-proliferative activity of the histone deacetylase inhibitory compounds as described herein, is evaluated with the HeLa cervical carcinoma cell line (ATCC CCL2) using the Alamar Blue (Resazurin) cell viability assay (O'Brien et al. Eur J Biochem 267, 5421-5426, 2000). Resazurin is reduced to the fluorescent resorufin by cellular dehydrogenase activity, correlating with viable, proliferating cells. Test compounds are dissolved as 10 mM solutions in dimethylsulfoxide (DMSO) and subsequently diluted in semi-logarithmic steps. HeLa cells are seeded into 96 well flat bottom plates at a density of 3000 cells per well in a volume of 200 μl per well. 24 hours after seeding 1 μl each of the compound dilutions are added into each well of the 96 Well plate. Each compound dilution is tested as quadruplicates. Wells containing untreated control cells are filled with 200 μl DMEM medium containing 0.5% v:v DMSO. The cells are then incubated with the substances for 48 hours at 37° C. in a humidified atmosphere containing 5% carbon dioxide. To determine the viability of the cells, 20 μl of an Resazurin solution (Sigma; 90 mg/l) are added. After 4 hours incubation at 37° C. the fluorescence is measured at an extinction of 544 nm and an emission of 590 nm. For the calculation of the cell viability the emission value from untreated cells is set as 100% viability and the emission rates of treated cells are set in relation to the values of untreated cells. Viabilites are expressed as % values. The corresponding IC50 values of the compounds for cytotoxic activity are determined from the concentration-effect curves by means of non-linear regression.
EC50 [1],melting point,Structure (SMILES),IC50 [2]
280 to 5300 nM,,"Cn1ccc2cc(-c3ccc(S(=O)(=O)n4ccc(/C=C/C(=O)NO)c4)cc3)ccc21 [Compound 1, (E)-N-Hydroxy-3-{1-[4-(1-methyl-1H-indol-5-yl)-benzenesulfonyl]-1H-pyrrol-3-yl}-acrylamide]",78 to 2300 nM
280 to 5300 nM,,"Cn1cc(-c2ccc(S(=O)(=O)n3ccc(/C=C/C(=O)NO)c3)cc2)cn1 [Compound 2, (E)-N-Hydroxy-3-{1-[4-(1-methyl-1H-pyrazol-4-yl)-benzenesulfonyl]-1H-pyrrol-3-yl}-acrylamide]",78 to 2300 nM
280 to 5300 nM,,"COc1ccc(-c2ccc(S(=O)(=O)n3ccc(/C=C/C(=O)NO)c3)cc2)cn1 [Compound 3, (E)-N-Hydroxy-3-{1-[4-(6-methoxy-pyridin-3-yl)-benzenesulfonyl]-1H-pyrrol-3-yl}-acrylamide]",78 to 2300 nM
280 to 5300 nM,,"Nc1ccc(-c2ccc(S(=O)(=O)n3ccc(C=CC(=O)NO)c3)cc2)cn1 [Compound 4, (E)-3-∴1-[4-(6-Amino-pyridin-3-yl)-benzenesulfonyl]-1H-pyrrol-3-yl)-N-hydroxy-acrylamide]",78 to 2300 nM
280 to 5300 nM,,"COc1ccc(-c2ccc(S(=O)(=O)n3ccc(/C=C/C(=O)Nc4ccccc4N)c3)cc2)cn1 [Compound 5, (E)-N-(2-Amino-phenyl)-3-{1-[4-(6-methoxy-pyridin-3-yl)-benzenesulfonyl]-1H-pyrrol-3-yl}-acrylamide]",78 to 2300 nM
280 to 5300 nM,,"Nc1ccc(-c2ccc(S(=O)(=O)n3ccc(/C=C/C(=O)Nc4ccccc4N)c3)cc2)cn1 [Compound 6, (E)-N-(2-Amino-phenyl)-3-{1-[4-(6-amino-pyridin-3-yl)-benzenesulfonyl]-1H-pyrrol-3-yl}-acrylamide]",78 to 2300 nM
280 to 5300 nM,,"Cn1cc(-c2ccc(S(=O)(=O)n3ccc(/C=C/C(=O)Nc4ccccc4N)c3)cc2)cn1 [Compound 7, (E)-N-(2-Amino-phenyl)-3-{1-[4-(1-methyl-1H-pyrazol-4-yl)-benzenesulfonyl]-1H-pyrrol-3-yl}-acrylamide]",78 to 2300 nM
,193 to 197 °C,"Cn1cc(-c2cccc(S(=O)(=O)n3ccc(/C=C/C(=O)Nc4ccccc4N)c3)c2)cn1 [Compound 15, (E)-N-(2-Amino-phenyl)-3-{1-[3-(1-methyl-1H-pyrazol-4-yl)-benzenesulfonyl]-1H-pyrrol-3-yl}-acrylamide]",
,119 to 126 °C,"Cc1ccc(S(=O)(=O)NC2(S(=O)(=O)n3ccc(/C=C/C(=O)NO)c3)C=CC(c3ccccc3)=CC2)cc1 (centres unmarked) [Compound 29, (E)-N-Hydroxy-3-{1-[4-(toluene-4-sulfonylamino)-biphenyl-4-sulfonyl]-1H-pyrrol-3-yl}-acrylamide]",
27 to 4400 nM,,"O=C(/C=C/c1ccn(S(=O)(=O)c2cccc(-c3ccc(CN4CCOCC4)cc3)c2)c1)NO [Compound 36, (E)-N-Hydroxy-3-[1-(4′-morpholin-4-ylmethyl-biphenyl-3-sulfonyl)-1H-pyrrol-3-yl]-acrylamide]",
27 to 4400 nM,,"CN(C)Cc1ccc(-c2cccc(S(=O)(=O)n3ccc(/C=C/C(=O)NO)c3)c2)cc1 [Compound 37, (E)-3-[1-(4′-Dimethylaminomethyl-biphenyl-3-sulfonyl)-1H-pyrrol-3-yl]-N-hydroxy-acrylamide]",
27 to 4400 nM,167 to 172 °C,"O=C(/C=C/c1ccn(S(=O)(=O)c2cc(-c3ccccc3)ccc2OCCCN2CCOCC2)c1)NO [Compound 38, (E)-N-Hydroxy-3-{1-[4-(3-morpholin-4-yl-propoxy)-biphenyl-3-sulfonyl]-1H-pyrrol-3-yl}-acrylamide]",
27 to 4400 nM,,"CN1CCN(c2cc(-c3ccc(S(=O)(=O)n4ccc(/C=C/C(=O)NO)c4)s3)ccn2)CC1 [Compound 42, (E)-N-Hydroxy-3-(1-{5-[2-(4-methyl-piperazin-1-yl)-pyridin-4-yl]-thiophene-2-sulfonyl}-1H-pyrrol-3-yl)-acrylamide]",
27 to 4400 nM,,"O=C(/C=C/c1ccn(S(=O)(=O)c2cccc(-c3ccc(OCCN4CCCC4)cc3)c2)c1)NO [Compound 43, (E)-N-Hydroxy-3-{1-[4′-(2-pyrrolidin-1-yl-ethoxy)-biphenyl-3-sulfonyl]-1H-pyrrol-3-yl}-acrylamide]",
27 to 4400 nM,,"CN(C)Cc1ccc(-c2ccc(S(=O)(=O)n3ccc(/C=C/C(=O)NO)c3)s2)cc1 [Compound 46, (E)-3-{1-[5-(4-Dimethylaminomethyl-phenyl)-thiophene-2-sulfonyl]-1H-pyrrol-3-yl}-N-hydroxy-acrylamide]",
,211 to 216 °C,"CN(C)CC1(S(=O)(=O)n2ccc(/C=C/C(=O)Nc3ccccc3N)c2)C=CC(c2ccccc2)=CC1 (centres unmarked) [Compound 47, (E)-N-(2-Amino-phenyl)-3-[1-(4-dimethylaminomethyl-biphenyl-4-sulfonyl)-1H-pyrrol-3-yl]-acrylamide]",
27 to 4400 nM,,"O=C(/C=C/c1ccn(S(=O)(=O)c2ccc(-c3ccc(CN4CCOCC4)cc3)s2)c1)NO [Compound 54, (E)-N-Hydroxy-3-{1-[5-(4-morpholin-4-ylmethyl-phenyl)-thiophene-2-sulfonyl]-1H-pyrrol-3-yl}-acrylamide]",
27 to 4400 nM,,"O=C(/C=C/c1ccn(S(=O)(=O)c2ccc(-c3ccc(OCCN4CCOCC4)cc3)s2)c1)NO [Compound 56, (E)-N-Hydroxy-3-(1-{5-[4-(2-morpholin-4-yl-ethoxy)-phenyl]-thiophene-2-sulfonyl}-1H-pyrrol-3-yl)-acrylamide]",
27 to 4400 nM,,"O=C(/C=C/c1ccn(S(=O)(=O)c2ccc(-c3ccc(OCCCN4CCOCC4)cc3)s2)c1)NO [Compound 57, (E)-N-Hydroxy-3-(1-{5-[4-(3-morpholin-4-yl-propoxy)-phenyl]-thiophene-2-sulfonyl}-1H-pyrrol-3-yl)-acrylamide]",
27 to 4400 nM,,"COCCNCc1ccc(-c2cccc(S(=O)(=O)n3ccc(C=CC(=O)NO)c3)c2)cc1 [Compound 58, (E)-N-Hydroxy-3-(1-{4′-[(2-methoxy-othylamino)-methyl]-biphenyl-3-sulfonyl}-1H-pyrrol-3-yl)-acrylamide]",
27 to 4400 nM,,"CS(=O)(=O)Nc1cccc(-c2ccc(S(=O)(=O)n3ccc(/C=C/C(=O)Nc4ccccc4N)c3)cc2)c1 [Compound 59, (E)-N-(2-Amino-phenyl)-3-[1-(3′-methanesulfonylamino-biphenyl-4-sulfonyl)-1H-pyrrol-3-yl]-acrylamide]",
27 to 4400 nM,,"CN1CCN(Cc2ccc(-c3cccc(S(=O)(=O)n4ccc(/C=C/C(=O)NO)c4)c3)cc2)CC1 [Compound 62, (E)-N-Hydroxy-3-{1-[4′-(4-methyl-piperazin-1-ylmethyl)-biphenyl-3-sulfonyl]-1H-pyrrol-3-yl}-acrylamide]",
,278 to 280 °C,"NCC1(S(=O)(=O)n2ccc(/C=C/C(=O)Nc3ccccc3N)c2)C=CC(c2ccccc2)=CC1 (centres unmarked) [Compound 93, (E)-3-[1-(4-Aminomethyl-biphenyl-4-sulfonyl)-1H-pyrrol-3-yl]-N-(2-amino-phenyl)-acrylamide]",
,196 to 201 °C,"Nc1ccccc1NC(=O)/C=C/c1ccn(S(=O)(=O)C2(CN3CCOCC3)C=CC(c3ccccc3)=CC2)c1 (centres unmarked) [Compound 107, (E)-N-(2-Amino-phenyl)-3-[1-(4-morpholin-4-ylmethyl-biphenyl-4-sulfonyl)-1H-pyrrol-3-yl]-acrylamide]",
